These results are taken from publication PMC9361468 (RSC Advances, 2022).

Structures are written as SMILES. Like-named read-outs stand apart in the source and are kept apart here.

Where [1] appears, read: Experimental pKa, common substituted piperazines, mean ± SD of 3 experiments.
The mark [2] stands for this setting: Experimental pKa, PROTAC precursors, mean ± SD of 3 experiments.

The pKa is the pH at which an ionisable group is half protonated. Higher therefore signals a weaker acid or stronger base. As for `CN1CCN(C)CC1` [1,4-Dimethylpiperazine, reference compound], the pKa in the series “physchem” (setting [1]) is roughly 8. Also, for the setting “substituted piperazines”, the “% protonation state at pH = 7.5, DP: double protonation state” value (“% protonation state at pH = 7.5, DP” for short) is given as “DP: 0.02%”; the “% protonation state at pH = 7.5, NI: not-ionized state” value is “NI: 21.59%”; the “% protonation state at pH = 7.5, P: single protonation state” value (from here on “% protonation state at pH = 7.5, P”) is listed as “P: 78.38%”.

On to `CC(=O)N1CCN(C)CC1` [1-Acetyl-4-methylpiperazine, reference compound], for which the pKa in the series “physchem” (setting [1]) is 7.06. In addition, under “substituted piperazines”, the “% protonation state at pH = 7.5, NI: not-ionized state” value is “NI: 73.36%” and the “% protonation state at pH = 7.5, P” value is listed as “P: 26.64%”. In addition, the “% protonation state at pH = 7.5, NI: not-ionized state” value (substituted piperazines, listed as 1-acetyl-4-methylpiperazine) came to 73.4%.

With `CC(=O)N1CCNCC1` [1-Acetyl-piperazine, reference compound], in “physchem” (setting [1]), the pKa amounted to 8.05 ± 0.02. For the setting “substituted piperazines”, the “% protonation state at pH = 7.5, NI: not-ionized state” value is “NI: 21.99%” and the “% protonation state at pH = 7.5, P” value is on record as “P: 78.01%”.

With `CCN1CCNCC1` [1-Ethylpiperazine, reference compound], the pKa in “physchem” (setting [1]) came to 5.04 ± 0.03. Besides, where the note is “substituted piperazines”, the “% protonation state at pH = 7.5, DP” value is “DP: 2.18%”; the “% protonation state at pH = 7.5, NI: not-ionized state” value is on record as “NI: 0.34%”; the “% protonation state at pH = 7.5, P” value was “P: 97.48%”.

In the case of `CN1CCNCC1` [1-Methylpiperazine, reference compound], the pKa in the series “physchem” (setting [1]) worked out at 9.16. In addition, under “substituted piperazines”, the “% protonation state at pH = 7.5, DP” value was “DP: 2.13%”; the “% protonation state at pH = 7.5, NI: not-ionized state” value is listed as “NI: 0.32%”; the “% protonation state at pH = 7.5, P” value was “P: 97.55%”.

In turn, `Cc1sc2c(c1C)C(c1ccc(Cl)cc1)=N[C@@H](CC(=O)N1CCN(C)CC1)c1nnc(C)n1-2` [Compound 2] displayed a pKa in “physchem” of 7.14 ± 0.02. Also, under “PROTAC precursors”, the “% protonation state at pH = 7.5, NI: not-ionized state” value is reported as “NI: 69.61%” and the “% protonation state at pH = 7.5, P” value was “P: 30.39%”.

In “physchem”, `COc1ccc2c(c1)c(CC(=O)N1CCN(C)CC1)c(C)n2C(=O)c1ccc(Cl)cc1` [Compound 4] showed a pKa of 6.93 ± 0.03. Also, where the note is “PROTAC precursors”, the “% protonation state at pH = 7.5, NI: not-ionized state” value was “NI: 78.79%” and the “% protonation state at pH = 7.5, P” value is recorded as “P: 21.20%”.

Take `C#CCN1CCN(C(=O)C[C@@H]2N=C(c3ccc(Cl)cc3)c3c(sc(C)c3C)-n3c(C)nnc32)CC1` [Compound 5]: in “physchem”, the pKa was 4.91 ± 0.14. For the setting “PROTAC precursors”, the “% protonation state at pH = 7.5, NI: not-ionized state” value is on record as “NI: 99.74%” and the “% protonation state at pH = 7.5, P” value is on record as “P: 0.26%”.

The compound `O=C(c1cc(Cc2n[nH]c(=O)c3ccccc23)ccc1F)N1CCN(Cc2ccccc2)CC1` [Compound 7] returned a pKa in the series “physchem” (setting [2]) of 5.98 ± 0.01. Moreover, for the setting “PROTAC precursors”, the “% protonation state at pH = 7.5, NI: not-ionized state” value is on record as “NI: 97.07%” and the “% protonation state at pH = 7.5, P” value is listed as “P: 2.93%”.

For the compound `CC(=O)CN1CCN(C(=O)c2ccc3c(c2)nc(Nc2cccc(Cl)c2)c2ccncc23)CC1` [Compound 8], under “PROTAC precursors”, the “% protonation state at pH = 7.5, NI: not-ionized state” value is “NI: 99.71%” and the “% protonation state at pH = 7.5, P” value was “P: 0.29%”.

In “physchem”, `COc1ccc2c(c1)c(CC(=O)N1CCN(CC(C)=O)CC1)c(C)n2C(=O)c1ccc(Cl)cc1` [Compound 9] returned a pKa of 5.35 ± 0.04. For the same compound, where the note is “PROTAC precursors”, the “% protonation state at pH = 7.5, P” value is recorded as “P: 3.83%”.

Compound `CCOC(=O)CN1CCN(C(=O)Cc2c(C)n(C(=O)c3ccc(Cl)cc3)c3ccc(OC)cc23)CC1` [Compound 10] showed a pKa in the series “physchem” of 4.5 ± 0.06. Moreover, the “% protonation state at pH = 7.5, NI: not-ionized state” value (PROTAC precursors) is listed as “NI: 99.9%”.

As to `COc1ccc2c(c1)c(CC(=O)N1CCN(CCC(C)=O)CC1)c(C)n2C(=O)c1ccc(Cl)cc1` [Compound 12], in “physchem”, the pKa is 5.98 ± 0.05. Moreover, for the setting “PROTAC precursors”, the “% protonation state at pH = 7.5, NI: not-ionized state” value is “NI: 97.07%” and the “% protonation state at pH = 7.5, P” value is on record as “P: 2.93%”.

With `COc1ccc2c(c1)c(CC(=O)N1CCN(CCCC(C)=O)CC1)c(C)n2C(=O)c1ccc(Cl)cc1` [Compound 13], the pKa in “physchem” turned out to be 6.75 ± 0.03. Under “PROTAC precursors”, the “% protonation state at pH = 7.5, NI: not-ionized state” value is reported as “NI: 84.90%” and the “% protonation state at pH = 7.5, P” value is reported as “P: 15.09%”.

For the compound `COC(=O)CCCCN1CCN(C(=O)Cc2c(C)n(C(=O)c3ccc(Cl)cc3)c3ccc(OC)cc23)CC1` [Compound 14], in the series “physchem”, the pKa turned out to be 7.07 ± 0.05. Where the note is “PROTAC precursors”, the “% protonation state at pH = 7.5, NI: not-ionized state” value is “NI: 72.91%”.

`COC(=O)CCCCCCN1CCN(C(=O)Cc2c(C)n(C(=O)c3ccc(Cl)cc3)c3ccc(OC)cc23)CC1` [Compound 15] returned a pKa in “physchem” of 7.41 ± 0.08. Also, the “% protonation state at pH = 7.5, NI: not-ionized state” value (PROTAC precursors) is reported as “NI: 55.16%”.

In the case of `COC(=O)CCC(=O)N1CCN(CCNC(=O)Cc2c(C)n(C(=O)c3ccc(Cl)cc3)c3ccc(OC)cc23)CC1` [Compound 16], the pKa in the series “physchem” (setting [2]) is 5.61. In addition, where the note is “PROTAC precursors”, the “% protonation state at pH = 7.5, NI: not-ionized state” value was “NI: 98.73%” and the “% protonation state at pH = 7.5, P” value is listed as “P: 1.27%”.

For `COc1ccc2c(c1)c(CC(=O)N1CCN(CCOCCO)CC1)c(C)n2C(=O)c1ccc(Cl)cc1` [Compound 17], in “physchem”, the pKa was 6.75 ± 0.14. For the setting “PROTAC precursors”, the “% protonation state at pH = 7.5, NI: not-ionized state” value is given as “NI: 84.90%” and the “% protonation state at pH = 7.5, P” value is listed as “P: 15.10%”.

On to `COc1ccc2c(c1)c(CC(=O)N1CCN(CCC(=O)N[C@H](C(=O)N3C[C@H](O)C[C@H]3C(=O)N[C@@H](C)c3ccc(-c4scnc4C)cc3)C(C)(C)C)CC1)c(C)n2C(=O)c1ccc(Cl)cc1` [PROTAC-6], for which the “% protonation state at pH = 7.5, NI: not-ionized state” value (PROTACs) is “NI: 98.33%”.

Take `COc1ccc2c(c1)c(CC(=O)NCCCN1CCN(CCCNC(=O)CCC(=O)N[C@H](C(=O)N3C[C@H](O)C[C@H]3C(=O)N[C@@H](C)c3ccc(-c4scnc4C)cc3)C(C)(C)C)CC1)c(C)n2C(=O)c1ccc(Cl)cc1` [PROTAC-8]: in the series “physchem” (Experimental pKa, PROTACs, mean ± SD of 3 experiments), the pKa amounted to 3.94. Moreover, under “PROTACs”, the “% protonation state at pH = 7.5, DP” value was “DP: 0.02%” and the “% protonation state at pH = 7.5, NI: not-ionized state” value was “NI: 32.86%”.

Consider `COc1ccc2c(c1)c(CC(=O)N1CCN(CCOCCOCC(=O)N[C@H](C(=O)N3C[C@H](O)C[C@H]3C(=O)N[C@@H](C)c3ccc(-c4scnc4C)cc3)C(C)(C)C)CC1)c(C)n2C(=O)c1ccc(Cl)cc1` [PROTAC-10], for which the “% protonation state at pH = 7.5, NI: not-ionized state” value (PROTACs) is recorded as “NI: 94.44%”.

As to `C1CNCCN1` [Piperazine, reference compound], the “% protonation state at pH = 7.5, DP” value is listed as “DP: 0.86%”; the “% protonation state at pH = 7.5, NI: not-ionized state” value is “NI: 0.67%”; the “% protonation state at pH = 7.5, P” value was “P: 98.48%”.
